Values after ≈ are worked out from the molar mass of the structure shown. Like-named read-outs stand apart in the source and are kept apart here. Where a SMILES comes first, the peptide text is derived from it. [ ]: non-standard residue; d: D form. The star is where a group is joined. Fumaryl(OMe) = COC(=O)/C=C/C(=O)*; Dap = NC[C@H](N)C(=O)O
Tests used:
Type in all cases: cell-based, Candida albicans
C. albicans opt2Δ opt3Δ = conditions: turbidity 531 nm, at least 80% decrease
Method: (§1) Strains were grown at 30°C in YPD medium (1% yeast extract, 2% peptone, and 2% glucose) and stored on YPD plates containing 2% agar. Susceptibility testing was performed in YPD and other three media: (a) RPMI-1640 w/o sodium bicarbonate, with L-glutamine + 2% glucose + 3.45% MOPS, pH adjusted to 7.0; (b) YNB-AS—Yeast Nitrogen Base w/o amino acids (contains ammonium sulfate 5 g L^-1) + 2% glucose; (c) YNB-SG—Yeast Nitrogen Base w/o amino acids and ammonium sulfate + 2% glucose + 0.2 g L^-1 sodium glutamate. In their solid version, used for the mutant generation and isolation, YNB-AS and YNB-SG contained 2% agar.
(§2) The in vitro growth inhibitory activity of antifungals was quantified by determination of minimal inhibitory concentration (MIC) values by the serial twofold dilution method, using the 96-well microtiter plates in three media: buffered RPMI-1640, YNB-AS, and YNB-SG. Conditions of the RPMI-1640-based assay were the same as outlined in the CLSI recommendations ([Clinical Laboratory Standards Institute, 2008]), except for the end-point readout that was done by spectrophotometric determination of cell density at 531 nm. Turbidity in individual wells was measured with a microplate reader (Victor^3; Perkin Elmer). MIC was defined as the lowest drug concentration that gave at least an 80% decrease in turbidity, relative to that of the drug-free growth control.
(§3) The 96-well microtiter plates were also used for determination of in vitro growth inhibitory activity in YPD and YNB-based media. Individual wells were inoculated with 5 × 10^3 cfu mL^-1 of C. albicans cells from the overnight culture in YPD medium. The inoculated plates were incubated 37°C for 24 h and then turbidity was measured with a microplate reader at 531 nm, as described above for the RPMI-1640-based assay.

C. albicans SC5314 = tested on: C. albicans SC5314
Method: as §1, §2, §3

C. albicans opt5Δ = conditions: turbidity 531 nm, at least 80% decrease
Method: as §1, §2, §3

C. albicans opt1Δ = conditions: turbidity 531 nm, at least 80% decrease
Method: as §1, §2, §3

C. albicans opt1–opt5Δ [1] = conditions: turbidity 531 nm, at least 80% decrease
Method: as §1, §2, §3

C. albicans opt4Δ = conditions: turbidity 531 nm, at least 80% decrease
Method: as §1, §2, §3

[2] = tested on: C. albicans opt1–opt5Δ ptr2Δ ptr22Δ; conditions: turbidity 531 nm, at least 80% decrease
Method: as §1, §2, §3

C. albicans ptr2Δ ptr22Δ = conditions: turbidity 531 nm, at least 80% decrease
Method: as §1, §2, §3

[3] = tested on: C. albicans isolates NF1-3 and LNF1-3; experiment: Initial peptide uptake rate by isolates resistant to F2/F3; conditions: all six isolates NF1-3, LNF1-3; Figure 4
Method: Yeast cells grown exponentially in the YNB-SG medium were harvested by centrifugation (3000 ×g, 5 min), washed with 50 mM potassium phosphate buffer (pH 5.0 or 6.5), and suspended in the same buffer containing 1% glucose, to a final cell density corresponding to A660 ≅ 1.0. The cell suspension was incubated at 30°C. After 10 min, an oligopeptide solution was added, to give a final concentration of 100 μM. At that moment and at 5 min intervals thereafter, 2 mL samples of the cell suspension were withdrawn, immediately filtered through the Whatman GF/A filters and the filtrates were used to determine the residual peptide concentration. Then, the 1 mL portions of the filtrates were taken and combined with 1.25 mL aliquots of a solution containing 4% Na2B4O7 × 10 H2O and 0.8 mg mL^-1 of 2,4,6-trinitrobenzenesulfonate. The reaction was carried out at 37°C for 30 min. The A420 values were measured and the peptide concentration was read from the appropriate standard curve. Data were plotted as nanomoles of an oligopeptide, taken up by 1 mg (dry weight) of cells versus time. The initial uptake velocities were determined from the slopes of the linear part of the curves, in the 0- to 10-min region.
It is therefore clear that the diminished sensitivity of all six isolates to F2 and F3 was due to the reduced uptake, most likely by permease(s) of the PTR system.

C. albicans SC 5314 = experiment: Disc diffusion method; conditions: YNB-AS agar, 10 μg of peptide on a disc (10 μL of 1 mg mL^-1), 48 h, 30°C
Method: Candida albicans cells, apparently resistant to FMDP-peptides, were isolated from the individual colonies formed on the surface of YNB-SG agar medium containing FMDP-peptide, 10 μg mL^-1 or within the growth inhibitory zones around the paper discs saturated with 10 μL of the FMDP-peptide solution, 1 mg mL^-1. In both versions, the agar surface was inoculated with 10^5 cells from the overnight culture in YPD medium, washed three times with sterile water, suspended in 0.2 mL of sterile water and the cell suspension was spread on the whole surface with a sterile glass rod. Plates were incubated for 48 h at 30°C and isolated colonies were picked with a platinum loop.
Growth inhibitory activity of FMDP-oligopeptides against C. albicans SC 5314 was also determined by the disc diffusion method. […] Cells grown in these colonies were collected, re-grown in YNB-AS and tested for sensitivity to FMDP-oligopeptides.
FIGURE 3 Disc diffusion activity determination of FMDP-oligopeptides. YNB-AS agar medium, 10 μg of each peptide applied on a disc. (A) F2; (B) F3; (C) F6; (D) F7; (E) F11.

C. albicans opt1–opt5Δ [4] = experiment: Initial peptide uptake rate; conditions: 50 mM potassium phosphate buffer (pH 5.0 or 6.5) + 1% glucose, 30°C, 100 μM peptide, TNBS A420, slope 0- to 10-min
Procedure, shortened: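 Exponentially grown yeast in 50 mM potassium phosphate (pH 5.0 or 6.5) with 1% glucose at 30°C received oligopeptide at a final 100 μM. Residual peptide in filtrates was measured every 5 min by trinitrobenzenesulfonate assay (A420). Initial rates come from 0–10 min slopes, per mg dry cells.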

[5] = RPMI-1640 medium, MOPS pH 7.0, CLSI conditions

Compound: COC(=O)/C=C/C(=O)NC[C@H](NC(=O)[C@H](CCSC)NC(=O)[C@@H](NC(=O)[C@@H]1CCCN1C(=O)[C@H](CC(C)C)NC(=O)[C@@H](N)CCCCN)C(C)C)C(=O)O [Peptide F6, Lys-Leu-Pro-Val-Met-FMDP] (H-KLPVM[Dap](Fumaryl(OMe))-OH; N-terminus and C-terminus assumed)
- MIC (C. albicans opt2Δ opt3Δ; [5]): >128 µg/mL
- MIC (C. albicans opt2Δ opt3Δ; YNB-AS medium, 37°C, 24 h): 32 µg/mL (≈ 40.8 µM)
- MIC (C. albicans opt2Δ opt3Δ; YNB-SG medium, 37°C, 24 h): 32 µg/mL (≈ 40.8 µM)
- MIC (C. albicans SC5314; SC 5314, RPMI-1640 medium, MOPS pH 7.0, CLSI conditions, turbidity 531 nm, at least 80% decrease): >128 µg/mL
- MIC (C. albicans SC5314; SC 5314, YNB + L-Gln (0.3 g L^-1) pH 5.0): 4.0 µg/mL
- MIC (C. albicans SC5314; SC 5314, YNB + L-Gln (0.3 g L^-1) pH 7.0): 128 µg/mL
- MIC (C. albicans SC5314; SC 5314, YNB + amino acid mixture (composition as in RPMI-1640)): >128 µg/mL
- MIC (C. albicans SC5314; SC 5314, YNB-AS medium, 5 × 10^3 cfu mL^-1, 37°C, 24 h, turbidity 531 nm, at least 80% decrease): 4 µg/mL (≈ 5.1 µM)
- MIC (C. albicans SC5314; SC5314, YNB-SG medium (Table 8)): 4 µg/mL (≈ 5.1 µM)
- MIC (C. albicans SC5314; SC 5314, YNB-SG medium, 5 × 10^3 cfu mL^-1, 37°C, 24 h, turbidity 531 nm, at least 80% decrease): 0.5 µg/mL (≈ 0.637 µM)
- MIC (C. albicans SC5314; SC 5314, growth medium YNB-SG (Table 6)): 0.5 µg/mL (≈ 0.637 µM)
- Increase of MICs in presence of Ala-Ala-Ala-Ala (C. albicans SC5314; YNB-SG + Ala-Ala-Ala-Ala 1 g L^-1): 16- to 64 fold
- Effect of supplementation with Ala-Ala or Ala-Ala-Ala on activity (C. albicans SC5314; YNB-based media + Ala-Ala or Ala-Ala-Ala, 1 g L^-1, 'similar effect' = complete elimination of activity as with Bacto Peptone): no effect
- MIC in YNB-AS, times higher than in YNB-SG (C. albicans SC5314; wild type SC5314): 8–16 times
- MIC (C. albicans opt5Δ; [5]): >128 µg/mL
- MIC (C. albicans opt5Δ; YNB-AS medium, 37°C, 24 h): 8 µg/mL (≈ 10.2 µM)
- MIC (C. albicans opt5Δ; YNB-SG medium, 37°C, 24 h): 4 µg/mL (≈ 5.1 µM)
- MIC (C. albicans opt1Δ; [5]): >128 µg/mL
- MIC (C. albicans opt1Δ; YNB-AS medium, 37°C, 24 h): 8 µg/mL (≈ 10.2 µM)
- MIC (C. albicans opt1Δ; YNB-SG medium, 37°C, 24 h): 4 µg/mL (≈ 5.1 µM)
- MIC (C. albicans opt1–opt5Δ [1]; [5]): >128 µg/mL
- MIC (C. albicans opt1–opt5Δ [1]; YNB-AS medium, 37°C, 24 h): >128 µg/mL
- MIC (C. albicans opt1–opt5Δ [1]; YNB-SG medium, 37°C, 24 h): 64 µg/mL (≈ 81.5 µM)
- MIC (C. albicans opt4Δ; [5]): >128 µg/mL
- MIC (C. albicans opt4Δ; YNB-AS medium, 37°C, 24 h): 8 µg/mL (≈ 10.2 µM)
- MIC (C. albicans opt4Δ; YNB-SG medium, 37°C, 24 h): 8 µg/mL (≈ 10.2 µM)
- MIC [2, 5]: >128 µg/mL
- MIC ([2]; YNB-AS medium, 37°C, 24 h): >128 µg/mL
- MIC ([2]; YNB-SG medium, 37°C, 24 h): 64 µg/mL (≈ 81.5 µM)
- MIC (C. albicans ptr2Δ ptr22Δ; [5]): >128 µg/mL
- MIC (C. albicans ptr2Δ ptr22Δ; YNB-AS medium, 37°C, 24 h): 4 µg/mL (≈ 5.1 µM)
- MIC (C. albicans ptr2Δ ptr22Δ; YNB-SG medium, 37°C, 24 h): 0.5 µg/mL (≈ 0.637 µM)
- Initial uptake rate relative to wild type SC5314 cells [3]: nearly the same or even somewhat higher
- Appearance of growth inhibitory zone (C. albicans SC 5314): clear
- Uptake rate ± SD (C. albicans opt1–opt5Δ [4]): 0.22 ± 0.04 nmol min^-1 (mg dry weight)^-1
